# Test: Heat-induced release of drug surrogate (alcohol 11 or amine 12) from linkers in methanol, HPLC quantification
# Type: physicochemical
# Conditions: for % release after heating (55° C.) at time (h) 0.25 / % release after heating (55° C.) at time (h) 0.5 / % release after heating (55° C.) at time (h) 0.75 / % release after heating (55° C.) at time (h) 1 / % release after heating (55° C.) at time (h) 2 / % release after heating (55° C.) at time (h) 3 / % release after heating (55° C.) at time (h) 24 h / % release at rt, 3.5 h: release of alcohol 11, mean ± SD, n = 3; for % release after heating (55° C.) at time (h) 0.25 / % release after heating (55° C.) at time (h) 0.5 / % release after heating (55° C.) at time (h) 0.75 / % release after heating (55° C.) at time (h) 1 / % release after heating (55° C.) at time (h) 2 / % release after heating (55° C.) at time (h) 3 / % release after heating (55° C.) at time (h) 24 h / Heat-induced release of 11 or 12 (result in words, spans all time columns): methanol ca. 0.01 M; for % release after heating (55° C.) at time (h) 0.25: 0.25 h; for % release after heating (55° C.) at time (h) 0.5: 0.5 h; for % release after heating (55° C.) at time (h) 0.75: 0.75 h; for % release after heating (55° C.) at time (h) 1: 1 h; for % release after heating (55° C.) at time (h) 2: 2 h; for % release after heating (55° C.) at time (h) 3: 3 h; for % release at rt, 3.5 h: room temperature control; for Heat-induced release of 11 or 12 (result in words, spans all time columns): 55° C. up to 24 h and rt 3.5 h
# Procedure: Methanol (MeOH) was used as a solvent to provide a protic solvent capable of hydrogen bonding. The amine-containing linker compounds, formed on Boc-deprotection with basic work-up (compounds 4.1-3, 8.1-2, 9, 10), were diluted with MeOH (2 mL, ˜0.01 M). An aliquot was removed to serve as a room temperature control. Heat was applied to the MeOH solutions using an oil bath. The temperature was set at 55° C., and the solutions were heated for a total of 24 h. Aliquots were taken at t=0.25, 0.50, 0.75, 1, 2, 3, and 24 h into the reaction. On sampling, the aliquots were, immediately stored at −5° C. On completion of the experiment, the samples were warmed to room temperature, filtered and dried under reduced pressure (3.5 h duration) and then returned to −5° C. Each sample was then removed individually from the freezer and diluted with 400 μL CH2Cl2 before injecting 50 μL into an HPLC fitted with a normal phase silica column (Waters Nova-Pak HR Silica, 6 μm, 60 Å, 3.9×300 mm prep column; 1% MeOH in CH2Cl2 with 0.1% Et3N). HPLC analysis enabled quantification of released 11 or 12. Schemes 3 and 4 depict the intramolecular cyclization processes to release the drug surrogate (e.g., 11 or 12). […] FIG. 12 graphically illustrates the heat-induced release of alcohol 11 (Table 1). The substrates were heated as methanol solutions (ca. 0.01 M) at 55° C. for the indicated times as described above.
Structure (SMILES),% release after heating (55° C.) at time (h) 0.25,% release after heating (55° C.) at time (h) 0.5,% release after heating (55° C.) at time (h) 0.75,% release after heating (55° C.) at time (h) 1,% release after heating (55° C.) at time (h) 2,% release after heating (55° C.) at time (h) 3,% release after heating (55° C.) at time (h) 24 h,"% release at rt, 3.5 h","Heat-induced release of 11 or 12 (result in words, spans all time columns)"
"C=CCNCCCC(=O)OCCc1c2ccccc2cc2ccccc12 [Compound 4.1, 2-(anthracen-9-yl)ethyl 4-(allylamino)butanoate]",24.6 ± 3.1%,29.2 ± 1.7%,33.4 ± 2.5%,36.6 ± 2.6%,44.4 ± 3.7%,50.2 ± 4.2%,94.0 ± 1.8%,20.2 ± 3.1%,–
"C=CCNCCCCC(=O)OCCc1c2ccccc2cc2ccccc12 [Compound 4.2, 2-(anthracen-9-yl)ethyl 5-(allylamino)pentanoate]",20.9 ± 1.9%,21.6 ± 3.5%,23.0 ± 3.0%,25.0 ± 2.1%,30.5 ± 1.3%,36.5 ± 1.2%,75.7 ± 3.2%,17.0 ± 4.5%,–
"C=CCNCCCCCC(=O)OCCc1c2ccccc2cc2ccccc12 [Compound 4.3, 2-(anthracen-9-yl)ethyl 6-(allylamino)hexanoate]",2.1 ± 1.6%,1.8 ± 1.9%,2.1 ± 2.2%,2.1 ± 1.8%,3.1 ± 2.9%,3.6 ± 3.0%,10.4 ± 3.8%,1.7 ± 2.0%,–
"C=CCNCCOC(=O)OCCc1c2ccccc2cc2ccccc12 [Compound 8.1, 2-(allylamino)ethyl(2-(anthracen-9-yl)ethyl) carbonate]",23.5 ± 1.9%,28.9 ± 1.7%,32.4 ± 4.0%,36.7 ± 4.8%,48.3 ± 5.7%,57.0 ± 6.9%,68.9 ± 3.0%,18.8 ± 2.3%,–
"C=CCNCCCOC(=O)OCCc1c2ccccc2cc2ccccc12 [Compound 8.2, 3-(allylamino)propyl(2-(anthracen-9-yl)ethyl) carbonate]",12.0 ± 0.8%,14.1 ± 0.7%,16.4 ± 1.0%,18.0 ± 0.7%,24.8 ± 1.1%,29.0 ± 1.0%,62.1 ± 5.6%,9.6 ± 1.1%,–

# Second part, the compound after the results:
% release after heating (55° C.) at time (h) 0.25,% release after heating (55° C.) at time (h) 0.5,% release after heating (55° C.) at time (h) 0.75,% release after heating (55° C.) at time (h) 1,% release after heating (55° C.) at time (h) 2,% release after heating (55° C.) at time (h) 3,% release after heating (55° C.) at time (h) 24 h,"% release at rt, 3.5 h","Heat-induced release of 11 or 12 (result in words, spans all time columns)",Structure (SMILES)
–,–,–,–,–,–,–,–,no reaction,"C=CCNCCCC(=O)NCCc1c2ccccc2cc2ccccc12 [Compound 9, 4-(allylamino)-N-(2-(anthracen-9-yl)ethyl)butanamide]"
–,–,–,–,–,–,–,–,no reaction,"C=CCNCCNC(=O)OCCc1c2ccccc2cc2ccccc12 [Compound 10, 2-(anthracen-9-yl)ethyl(2-(allylamino)ethyl)carbamate]"
2.0 ± 0.1%,2.2 ± 0.1%,2.7 ± 0.1%,3.3 ± 0.4%,4.1 ± 0.3%,5.2 ± 0.8%,24.7 ± 3.9%,1.8 ± 0.2%,–,"C=CCNCCC(C)(C)CCC(=O)OCCc1c2ccccc2cc2ccccc12 [Compound 20, 2-(anthracen-9-yl)ethyl 6-(allylamino)-4,4-dimethylhexanoate]"
1.8 ± 0.4%,2.3 ± 0.5%,2.9 ± 0.1%,4.0 ± 0.3%,5.7 ± 1.0%,7.6 ± 0.3%,36.6 ± 0.3%,0.7 ± 0.1%,–,"C=CCNCCC(C)(C)COC(=O)OCCc1c2ccccc2cc2ccccc12 [Compound 23, 4-(allylamino)-2,2-dimethylbutyl(2-(anthracen-9-yl)ethyl) carbonate]"

# — patent US9849193B2, “Nanoparticles for drug delivery” (University of Louisville Research Foundation, Inc., priority 2013, dated 2017)
